What was measured:
[1] = system: Keratinozyten; test: Keratinocyte culture: cell count after 12 days and days to confluence (Beispiel 2); type: cell-based, human
[2] = system: Keratinozyten; test: Keratinocyte culture with FCS or Nu-Serum: cell count after 12 days and days to confluence (Beispiel 3); type: cell-based, human
Excerpt: Kerationozyten wurden durch Trypsinierung von Haut nach der Methode von M. Green (Green, M. et al, PNAS 76 (1979) 5665) gewonnen und in einer Zelldichte von 2,5 x 10 ⁴ Zellen/cm² ausgesät. Die Hautproben in den Beispielen 1, 2 und 3 stammten von Patienten die zwischen 30 und 40 Jahre alt waren. Zusätzlich wurden die Kulturen mit 2 x 10 ⁴ Zellen/cm² letal bestrahlter 3T3-Fibroblasten inokuliert, beschrieben im US-Patent 4,016,036.
Als Medium diente eine Mischung aus DMEM und HAM's F 12 (3:1) mit folgenden Zusätzen: Hydrocortison 0,4 ug/ml Insulin 5 ug/ml Triiodo-Thyronin 2x10⁻⁹M Transferrin 5 ug/ml Adenin 8 x 10⁻⁴ M Gentamycin, Penicillin, Streptomycin je 50 ug/ml Fötales Kälberserum 10 % EGF (nach 2 Tagen) 10 ng/ml
In diesem Experiment, das wie unter Beispiel 1 beschrieben durchgeführt wurde, wurden verschiedene Forskolinkonzentrationen unter Verwendung bzw. in Vergleich von 10 % fötalem Kälberserum (FCS) und einem synthetischen Serum der Firma Biomedica Wien (Nu-Serum Nr. 1) untersucht.

In the case of `C=C[C@@]1(C)CC(=O)[C@]2(O)[C@@]3(C)[C@@H](O)CCC(C)(C)[C@@H]3[C@H](O)[C@H](OC(C)=O)[C@@]2(C)O1` [Forskolin], the “Anzahl der Tage bis zur Konfluenz” value ([1]; 5x10^-5M) is reported as 18 Tage, the “Zellzahl nach 12 Tagen in einer 25cm^2 Kultur-schale” value (shortened to “Zellzahl nach 12 Tagen”) ([1]; 5x10^-5M) is reported as 13 x 10^5 and the “Anzahl der Tage bis zur Konfluenz” value ([1]; 5x10^-6M) is reported as 14 Tage. For the same compound, the “Zellzahl nach 12 Tagen” value ([1]; 5x10^-6M) was 23 x 10^5, the “Anzahl der Tage bis zur Konfluenz” value ([1]; 10^-5M) was 14 Tage and the “Zellzahl nach 12 Tagen” value ([1]; 10^-5M) was 25 x 10^5. For the same compound, the “Anzahl der Tage bis zur Konfluenz” value ([1]; 10^-6M) was 18 Tage, the “Zellzahl nach 12 Tagen” value ([1]; 10^-6M) was 12 x 10^5 and the “Anzahl der Tage bis zur Konfluenz” value ([1]; 10^-7M) was 24 Tage. For the same compound, the “Zellzahl nach 12 Tagen” value ([1]; 10^-7M) was 8 x 10^5, the “Zellzahl nach 12 Tagen” value ([1]; 10^-8M) was 2,5 x 10^5 and the “Reduction of the Zeit bis zum Erreichen einer konfluenten Keratinozytenkultur im Vergleich zu Cholera Toxin” value ([1]; Forskolin 5 x 10⁻⁶ bzw. 10⁻⁵ in the medium) was ≤ 40%. The “Anzahl der Tage bis zur Konfluenz” value ([2]; FCS, 5x10^-5M) was 18 Tage, the “Zellzahl nach 12 Tagen” value ([2]; FCS, 5x10^-5M) was 16 x 10^5 and the “Anzahl der Tage bis zur Konfluenz” value ([2]; FCS, 5x10^-6M) was 15 Tage. The “Zellzahl nach 12 Tagen” value ([2]; FCS, 5x10^-6M) was 24 x 10^5, the “Anzahl der Tage bis zur Konfluenz” value ([2]; FCS, 10^-5M) was 14 Tage and the “Zellzahl nach 12 Tagen” value ([2]; FCS, 10^-5M) was 32 x 10^5. The “Anzahl der Tage bis zur Konfluenz” value ([2]; FCS, 10^-6M) was 20 Tage, the “Zellzahl nach 12 Tagen” value ([2]; FCS, 10^-6M) was 14 x 10^5 and the “Anzahl der Tage bis zur Konfluenz” value ([2]; Nu-Serum, 5x10^-5M) was 18 Tage. The “Zellzahl nach 12 Tagen” value ([2]; Nu-Serum, 5x10^-5M) was 13 x 10^5, the “Anzahl der Tage bis zur Konfluenz” value ([2]; Nu-Serum, 5x10^-6M) was 16 Tage and the “Zellzahl nach 12 Tagen” value ([2]; Nu-Serum, 5x10^-6M) was 25 x 10^5. For the same compound, the “Anzahl der Tage bis zur Konfluenz” value ([2]; Nu-Serum, 10^-5M) was 15 Tage, the “Zellzahl nach 12 Tagen” value ([2]; Nu-Serum, 10^-5M) was 27 x 10^5 and the “Anzahl der Tage bis zur Konfluenz” value ([2]; Nu-Serum, 10^-6M) was 20 Tage. The “Zellzahl nach 12 Tagen” value ([2]; Nu-Serum, 10^-6M) was 14 x 10^5.

From patent publication EP0291696A2, “Process of multiplication of epithelial cells” (Battelle-Institut e.V., priority 1987, dated 1988)
